The values below come from US20210298299A1 (priority 2018, published 2021).

Type in all cases: in vivo
The subject of experiment [1] is cucumber anthracnose fungus Colletotrichum orbiculare. Conditions: alone, rating scale of Test Example 1.
Experiment [2] has as its system wheat speckled leaf blotch fungus Septoria tritici. Kind of experiment: Test for wheat speckled leaf blotch (Septoria tritici). Conditions: alone. How it is done:
Test for Wheat Speckled Leaf Blotch (Septoria tritici)
The agrochemical formulations diluted to predetermined concentrations were applied to wheat plants at a predetermined amount with a spray gun. After air-drying, the wheat plants were spray-inoculated with a spore suspension of the wheat speckled leaf blotch fungus Septoria tritici (1.0×10^7 spores/mL). After that, the wheat pots were kept in a greenhouse under light conditions at 15° C. and 100% RH to induce the development of the disease. At 17 days after the inoculation, the disease area percentage was indexed on a scale of 0 to 10 to evaluate the control efficacy. The control value is expressed in percentage (%) as shown below or in index form as in Example 1.
Disease Severity Index Scale
0: No manifestation of disease
1: Lesion area percentage is 1 to 10%.
2: Lesion area percentage is 11 to 20%.
3: Lesion area percentage is 21 to 30%.
4: Lesion area percentage is 31 to 40%.
5: Lesion area percentage is 41 to 50%.
6: Lesion area percentage is 51 to 60%.
7: Lesion area percentage is 61 to 70%.
8: Lesion area percentage is 71 to 80%.
9: Lesion area percentage is 81 to 90%.
10: Lesion area percentage is 91 to 100%.
Control value (%)=(disease severity index in non-treatment plot−disease severity index in treatment plot)×100/disease severity index in non-treatment plot [Math. 3]

Experiment [3] concerns tomato late blight fungus Phytophthora infestans. Conditions: alone, rating scale of Test Example 2.
Experiment [4] relates to leaf rust fungus Puccinia recondita. Kind of experiment: Test for control efficacy against wheat leaf rust. To be noted: alone, scale of 0 to 10. How it is done: Test for Control Efficacy Against Wheat Leaf Rust
The agrochemical formulations diluted to predetermined concentrations were applied to wheat plants at a predetermined amount with a spray gun. After air-drying, the wheat plants were spray-inoculated with a spore suspension of the leaf rust fungus Puccinia recondita (1.0×10^7 spores/mL). After that, the wheat pots were kept in a greenhouse under light conditions at 15° C. and 100% RH to induce the development of the disease. At 7 days after the inoculation, the disease area percentage was indexed on a scale of 0 to 10 to evaluate the control efficacy.

In experiment [5] the test system is rice blast fungus Pyricularia oryzae. Conditions: alone.
The test system of another experiment is Laodelphax striatellus. Description: Test for control efficacy against Laodelphax striatellus. To be noted: alone, 30 days after the agrochemical treatment. The text has this: Test for Control Efficacy Test Against Laodelphax striatellus
Adults of the test insect were released onto rice plants (variety: Kinmaze, 95 days after transplantation) grown in individual 2-L pots (8 females and 5 males per pot). At 11 days after the insect release (when hatched larvae were observed), mixed formulations of compound [1-7] and other agrochemicals and each individual agrochemical (prescribed effective doses) were separately applied. After air-drying and at 10 days after the agrochemical treatment, adults of the test insect were additionally released onto the rice plants (8 females and 5 males per pot). At 30 days after the agrochemical treatment, the number of survivors was measured, and the control value was calculated by equation 6. In addition, the expected value E for the mixed use was calculated by Colby's equation as described in Test Example 1. When the actual control efficacy of combined treatment with two different agrochemicals is greater than the expected value E, the combination can be regarded as having synergistic effect.
Control value (%)=(1−number of survivors/number of survivors in control plot)×100 [Math. 6]
Assuming that the control value for “no grade” is 49%, when the control values of the two different agrochemicals are both 49%, the expected value E calculated by Colby's equation is as follows: E=(49+49)−(49×49/100)=73.99. The control value of 73.99 corresponds to grade C. Therefore, when both the agrochemicals are graded as no grade, the expected value is C.

Experiment [6] concerns cucumber gray mold fungus Botrytis cinerea. Kind of experiment: Test for control efficacy against cucumber gray mold. To be noted: alone, from diameter of lesion area. As for the experimental part: Test for Control Efficacy Against Cucumber Gray Mold
The agrochemical formulations diluted to predetermined concentrations were applied to the foliage of cucumber plants (variety: Suuyou) at the one-leaf stage grown in individual pots. The application rate was 50 mL per pot. On the day following the application, 6-mm-diameter paper disks were impregnated with a spore suspension of the cucumber gray mold fungus Botrytis cinerea cultured on PSA medium, and inoculated onto cucumber true leaves. The pots were kept at a temperature of 20° C. and a humidity of 100%. At 6 days after the inoculation, the control value was determined by the equation 4 shown below.
Control value (%)=(diameter of lesion area in non-treatment plot−diameter of lesion area in treatment plot)×100/diameter of lesion area in non-treatment plot [Math. 4]

Read-outs that look alike come from different tables or passages of the source.

As to `O=C(Nc1ccccc1-c1ccc(F)c(F)c1)c1nccnc1C(F)(F)F` [Pyraziflumid 20SC, pyraziflumid], the Control value in experiment [1] (0.5 ppm) stood at 0.0; in experiment [1] (2 ppm), 0.0; in experiment [3] (2 ppm), 0.0; in experiment [4] (2 ppm), 2.0. Moreover, the “Control value (%)” value is given as 1% in experiment [2] (0.2 ppm, Compound [1-5] series); 53% in experiment [2] (0.7 ppm, Compound [1-5] series); 6.0% in experiment [2] (2 ppm, Compound [1-7] series); 92% in experiment [2] (2.2 ppm, Compound [1-5] series); 99% in experiment [2] (6.7 ppm, Compound [1-5] series); 100% in experiment [2] (20 ppm, Compound [1-5] series).

With `CC(C)(C)C(O)(CCc1ccc(Cl)cc1)Cn1cncn1` (stereo not shown) [Tebuconazole 25EW, tebuconazole], the Control value in experiment [1] (0.3 ppm) turned out to be 0.0; in experiment [3] (1 ppm), 0.0; in experiment [5] (0.3 ppm, ten-point scale) it was 0.0; in experiment [5] (1 ppm, ten-point scale) it was 0.0. The “Control value (%)” value in experiment [2] (1 ppm, Compound [1-7] series) was 0.0%.

For the molecule `CCC(Nc1ncnc(C)c1Cl)c1ccc(OC(F)F)cc1` (stereo not shown) [Diflumetorim 10EC, diflumetorim], the Control value is 2.0 in experiment [1] (10 ppm); 8.0 in experiment [5] (10 ppm, ten-point scale); 1.0 in experiment [4] (10 ppm).

For `O=C(NCCc1ncc(C(F)(F)F)cc1Cl)c1ccccc1C(F)(F)F` [Fluopyram 50SC, fluopyram], the values for the Control value in experiment [1] (3 ppm), in experiment [1] (10 ppm) and in experiment [5] (regardless of the concentration) were 0.0, 2.0 and 0, respectively. Also, the “Control value (%)” value in experiment [2] (10 ppm, Compound [1-7] series) came out at 0.0%.

Take `CO/C=C(/C(=O)OC)c1ccccc1Oc1cc(Oc2ccccc2C#N)ncn1` [Azoxystrobin 20SC, azoxystrobin]: the Control value in experiment [1] (0.3 ppm) is 2.0; in experiment [1] (3 ppm), 8.0; in experiment [3] (0.3 ppm), 0.0; in experiment [3] (3 ppm), 2.0; in experiment [5] (0.3 ppm, ten-point scale), 1.0; in experiment [5] (3 ppm, ten-point scale) it was 10. In addition, the results for the Control value in experiment [4] (0.3 ppm) and in experiment [4] (3 ppm) were 0.0 and 9.0, respectively. Besides, the Grade result in the experiment on Laodelphax striatellus (100 ppm) and in the experiment with Laodelphax striatellus (500 ppm) was “No grade (less than 50%)” in each case.

For the molecule `Cn1cc(C(=O)Nc2ccccc2-c2cc(F)c(F)c(F)c2)c(C(F)F)n1` [Fluxapyroxad 6EC, fluxapyroxad], the Control value in experiment [1] (1 ppm) is given as 0.0; in experiment [3] (1 ppm) it was 0.0; in experiment [5] (0.3 ppm, ten-point scale), 0.0; in experiment [5] (1 ppm, ten-point scale), 0.0. Besides, the “Control value (%)” value was determined as 16% in experiment [2] (0.07 ppm, Compound [1-5] series); 31% in experiment [2] (0.22 ppm, Compound [1-5] series); 65% in experiment [2] (0.67 ppm, Compound [1-5] series); 0.0% in experiment [2] (1 ppm, Compound [1-7] series); 98% in experiment [2] (2.0 ppm, Compound [1-5] series); 99% in experiment [2] (6.0 ppm, Compound [1-5] series).

Consider `OC(Cc1ccccc1Cl)(Cn1nc[nH]c1=S)C1(Cl)CC1` (stereo not shown) [Prothioconazole 25EC, prothioconazole], for which the Control value is given as 8.0 in experiment [1] (6.25 ppm); 10 in experiment [1] (25 ppm); 0.0 in experiment [3] (25 ppm); 5.0 in experiment [5] (6.25 ppm, ten-point scale); 9.0 in experiment [5] (25 ppm, ten-point scale); 0.0 in experiment [4] (6.25 ppm). In experiment [4] (25 ppm), this molecule gave a Control value of 5.0.

For the molecule `Fc1ccc([C@]2(Cn3cncn3)O[C@H]2c2ccccc2Cl)cc1` (racemic) [Epoxiconazole 8EC, epoxiconazole], the Control value was 0.0 in experiment [1] (0.5 ppm); 0.0 in experiment [1] (2 ppm); 55% in experiment [6] (67 ppm); 100% in experiment [6] (200 ppm); 0.0 in experiment [5] (0.5 ppm, ten-point scale); 3.0 in experiment [5] (2 ppm, ten-point scale). Also, the Control value was 10 in experiment [5] (8 ppm, ten-point scale); 7.0 in experiment [4] (0.5 ppm); 10.0 in experiment [4] (2 ppm). Further, the “Control value (%)” value in experiment [2] (0.4 ppm, Compound [1-5] series) was found to be 0%; in experiment [2] (1.1 ppm, Compound [1-5] series), 0%; in experiment [2] (2 ppm, Compound [1-7] series), 0.0%; in experiment [2] (3.3 ppm, Compound [1-5] series) it was 16%; in experiment [2] (8 ppm, Compound [1-7] series), 6.0%; in experiment [2] (10 ppm, Compound [1-5] series), 86%.

Regarding `N#Cc1c[nH]cc1-c1cccc2c1OC(F)(F)O2` [Fludioxonil 20SC, fludioxonil], the Control value in experiment [1] (3 ppm) was 7.0; in experiment [1] (10 ppm), 9.5; in experiment [6] (7 ppm), 0%; in experiment [6] (22 ppm) it was 59%; in experiment [5] (3 ppm, ten-point scale), 6.0; in experiment [5] (10 ppm, ten-point scale) it was 9.0. The Control value in experiment [4] (3 ppm) is recorded as 0.0; in experiment [4] (10 ppm), 0.0; in experiment [4] (200 ppm) it was 4.0.

With `O=C(Nc1ccccc1-c1ccc(Cl)cc1)c1cccnc1Cl` [Boscalid 50WG, boscalid], the Control value in experiment [6] (2 ppm) is 8%; in experiment [6] (7 ppm), 18%; in experiment [6] (22 ppm), 20%.

For the molecule `CC1(C(=O)Nc2ccc(O)c(Cl)c2Cl)CCCCC1` [Fenhexamid 50SC, fenhexamid], the Control value in experiment [6] (7 ppm) turned out to be 0%; in experiment [6] (22 ppm), 0%; in experiment [6] (200 ppm), 53%.
